ChEMBL document CHEMBL1135369, “Solid-phase synthesis of new saphenamycin analogues with antimicrobial activity” (2002)
Values after ≈ are worked out from the molar mass of the structure shown. Active and inactive are the calls of the source. The calls are words filed in the database; no cut-off is given here.

Assays:
[1] = system: Bacillus subtilis; test: Minimum inhibitory concentration against Bacillus subtilis; format: functional
[2] = system: Bacillus subtilis; test: Effect on Bacillus subtilis in plate diffusion test; ++ indicates Srong well defined clearance zone; format: functional, organism-based
[3] = system: Bacillus subtilis; test: Effect on Bacillus subtilis in plate diffusion test; No growth inhibition; format: functional, organism-based
[4] = system: Bacillus subtilis; test: Effect on Bacillus subtilis in plate diffusion test; + indicates clearance zones; format: functional, organism-based

| MIC [1] [µg/mL] | SMILES | Activity [2] | Activity [3] | Activity [4] |
| --- | --- | --- | --- | --- |
| 0.72 (≈ 1.1 µM) | CC(OC(=O)c1cccc(Cl)c1)c1cccc2nc3c(C(=O)OC(C)c4cccc5nc6c(C(=O)O)cccc6nc45)cccc3nc12 (configuration not stated) | Srong well defined clearance zone | – | – |
| – | CC(OC(=O)c1ccccc1F)c1cccc2nc3c(C(=O)O)cccc3nc12 (configuration not stated) | – | No growth inhibition | – |
| – | CC(OC(=O)c1cccc(F)c1)c1cccc2nc3c(C(=O)O)cccc3nc12 (configuration not stated) | – | No growth inhibition | – |
| 2.71 (≈ 6.14 µM) | CC(OC(=O)c1c(Cl)cccc1Cl)c1cccc2nc3c(C(=O)O)cccc3nc12 (configuration not stated) | – | – | clearance zones |
| – | C[S+](C)[O-] | – | inactive | – |
| – | CC(OC(=O)c1c(F)cccc1F)c1cccc2nc3c(C(=O)O)cccc3nc12 (configuration not stated) | – | No growth inhibition | – |
| – | Cc1ccc(C(=O)OC(C)c2cccc3nc4c(C(=O)O)cccc4nc23)c(OCc2ccccc2)c1 (configuration not stated) | – | No growth inhibition | – |
| – | Cc1ccc(OCc2ccccc2)c(C(=O)OC(C)c2cccc3nc4c(C(=O)O)cccc4nc23)c1 (configuration not stated) | – | No growth inhibition | – |
| 3.73 (≈ 7.57 µM) | Cc1cccc(C(=O)OC(C)c2cccc3nc4c(C(=O)O)cccc4nc23)c1OCc1ccccc1 (configuration not stated) | – | – | clearance zones |
| 2.49 (≈ 5.97 µM) | CC(OC(=O)c1ccccc1[N+](=O)[O-])c1cccc2nc3c(C(=O)O)cccc3nc12 (configuration not stated) | – | – | clearance zones |
| 2.1 (≈ 4.41 µM) | CC(OC(=O)c1c(Cl)cc(Cl)cc1Cl)c1cccc2nc3c(C(=O)O)cccc3nc12 (configuration not stated) | Srong well defined clearance zone | – | – |
| 3.35 (≈ 8.23 µM) | CC(OC(=O)c1ccccc1Cl)c1cccc2nc3c(C(=O)O)cccc3nc12 (configuration not stated) | – | – | clearance zones |
| 0.07 (≈ 0.172 µM) | CC(OC(=O)c1cccc(Cl)c1)c1cccc2nc3c(C(=O)O)cccc3nc12 (configuration not stated) | Srong well defined clearance zone | – | – |
| 3.93 (≈ 10.1 µM) | CC(OC(=O)c1ccc(F)cc1)c1cccc2nc3c(C(=O)O)cccc3nc12 (configuration not stated) | – | – | clearance zones |
